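Following 48 hours of exposure in 96-well plates, responses at five concentrations were used to interpolate endpoints linearly. GI50 is the concentration that inhibits growth by half. TGI: concentration producing complete growth inhibition.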
Key:
Experiment in all cases: NCI anticancer screen, dose series, 48 h
[1] = system: NCI-H226 lung
[2] = system: MDA-MB-231 breast
[3] = system: HS 578T breast
[4] = system: SW-620 colon
[5] = system: SF-268 CNS
[6] = system: OVCAR-4 ovarian
[7] = system: HCT-116 colon
[8] = system: 786-0 renal
[9] = system: M14 melanoma
[10] = system: UACC-62 melanoma
[11] = system: COLO 205 colon
[12] = system: SF-539 CNS
[13] = system: OVCAR-8 ovarian
[14] = system: KM12 colon
[15] = system: SF-295 CNS
[16] = system: HCT-15 colon
[17] = system: NCI-H522 lung
[18] = system: A498 renal
[19] = system: DU-145 prostate
[20] = system: RXF 393 renal
[21] = system: NCI-H460 lung
[22] = system: UO-31 renal
[23] = system: OVCAR-3 ovarian
[24] = system: A549 NSCLC
[25] = system: HCC-2998 colon
[26] = system: NCI-H23 lung
[27] = system: MCF7 breast
[28] = system: HL-60(TB) leukemia
[29] = system: IGROV1 ovarian
[30] = system: LOX IMVI melanoma
[31] = system: SNB-19 CNS
[32] = system: PC-3 prostate
[33] = system: HT29 colon
[34] = system: CAKI-1 renal
[35] = system: BT-549 breast
[36] = system: ACHN renal
[37] = system: K-562 leukemia
[38] = system: SK-MEL-5 melanoma
[39] = system: SK-MEL-28 melanoma
[40] = system: HOP-62 NSCLC
[41] = system: HOP-92 NSCLC
[42] = system: OVCAR-5 ovarian
[43] = system: UACC-257 melanoma
[44] = system: RPMI-8226 leukemia
[45] = system: MALME-3M melanoma
[46] = system: NCI/ADR-RES ovarian
[47] = system: SNB-75 CNS
[48] = system: T-47D breast
[49] = system: MDA-MB-435
[50] = system: CCRF-CEM leukemia
[51] = system: SN12C renal
[52] = system: SR leukemia
[53] = system: EKVX NSCLC
[54] = system: MOLT-4 leukemia
[55] = system: TK-10 renal
[56] = system: U251 CNS
[57] = system: SK-MEL-2 melanoma
[58] = system: SK-OV-3 ovarian

`COc1ccc2c(c1)C(=O)c1c-2c(Nc2cccc(C(C)=O)c2)nc2ccccc12` gave a GI50 [1] of 11.7 µM, a TGI [1] of 35.8 µM and a GI50 [2] of 3.21 µM. The TGI [2] was 12.7 µM, the GI50 [3] was 3.19 µM and the TGI [3] was 15.5 µM. For the same molecule, the GI50 [4] was 21.2 µM, the TGI [4] was greater than 100 µM and the GI50 [5] was 36.5 µM. It also gave a TGI [5] greater than 100 µM, a GI50 [6] of 15.5 µM and a TGI [6] greater than 100 µM. It also gave a GI50 [7] of 2.64 µM, a TGI [7] of 10.9 µM and a GI50 [8] of 3.78 µM. For the same molecule, the TGI [8] was 14 µM, the GI50 [9] was 15.5 µM and the TGI [9] was 46.5 µM. It also gave a GI50 [10] of 11.6 µM, a TGI [10] of 27.7 µM and a GI50 [11] of 37.9 µM. It also gave a TGI [11] greater than 100 µM, a GI50 [12] of 10.2 µM and a TGI [12] of 22.2 µM. The GI50 [13] was 14.5 µM, the TGI [13] was 34.7 µM and the GI50 [14] was 27 µM. It also gave a TGI [14] greater than 100 µM, a GI50 [15] of 21.7 µM and a TGI [15] of 56.2 µM. The GI50 [16] was 24 µM, the TGI [16] was greater than 100 µM and the GI50 [17] was 8.53 µM. The TGI [17] was 35.1 µM, the GI50 [18] was 3.09 µM and the TGI [18] was 15 µM. The GI50 [19] was 11.7 µM, the TGI [19] was 32.2 µM and the GI50 [20] was 9.79 µM. It also gave a TGI [20] of 31.5 µM, a GI50 [21] of 23.5 µM and a TGI [21] greater than 100 µM. It also gave a GI50 [22] of 15.4 µM, a TGI [22] of 45.2 µM and a GI50 [23] of 19.7 µM. It also gave a TGI [23] of 42.8 µM, a GI50 [24] of 17.7 µM and a TGI [24] of 40.5 µM. For the same molecule, the GI50 [25] was 16.1 µM, the TGI [25] was 91.4 µM and the GI50 [26] was 4.86 µM. It also gave a TGI [26] of 19.3 µM, a GI50 [27] of 24 µM and a TGI [27] greater than 100 µM. For the same molecule, the GI50 [28] was greater than 100 µM, the TGI [28] was greater than 100 µM and the GI50 [29] was 3.67 µM. For the same molecule, the TGI [29] was 18.4 µM, the GI50 [30] was 13.4 µM and the TGI [30] was 27.5 µM. It also gave a GI50 [31] of 5.99 µM, a TGI [31] of 18.3 µM and a GI50 [32] of 14.3 µM. The TGI [32] was 32.5 µM, the GI50 [33] was 21.2 µM and the TGI [33] was greater than 100 µM. The GI50 [34] was 20.3 µM, the TGI [34] was 43.6 µM and the GI50 [35] was 9.68 µM. The TGI [35] was 21.4 µM, the GI50 [36] was 4.21 µM and the TGI [36] was 14.9 µM. For the same molecule, the GI50 [37] was 44.7 µM, the TGI [37] was greater than 100 µM and the GI50 [38] was 5.22 µM. For the same molecule, the TGI [38] was 18.9 µM, the GI50 [39] was 15.1 µM and the TGI [39] was 64.6 µM. The GI50 [40] was 0.727 µM, the TGI [40] was 2.49 µM and the GI50 [41] was 11.1 µM. The TGI [41] was 27.7 µM, the GI50 [42] was 11.4 µM and the TGI [42] was 24.5 µM. It also gave a GI50 [43] of 23.9 µM, a TGI [43] of 61.7 µM and a GI50 [44] of 17.5 µM. The TGI [44] was 70.7 µM, the GI50 [45] was 18 µM and the TGI [45] was 48.3 µM. It also gave a GI50 [46] of 8.66 µM, a TGI [46] of 28.3 µM and a GI50 [47] of 5.55 µM. It also gave a TGI [47] of 20.5 µM, a GI50 [48] of 13.6 µM and a TGI [48] of 55.2 µM. It also gave a GI50 [49] of 30.8 µM, a TGI [49] greater than 100 µM and a GI50 [50] greater than 100 µM. For the same molecule, the TGI [50] was greater than 100 µM, the GI50 [51] was 10.3 µM and the TGI [51] was 40.1 µM. The GI50 [52] was 21.6 µM, the TGI [52] was greater than 100 µM and the GI50 [53] was 12.5 µM. It also gave a TGI [53] of 32.1 µM, a GI50 [54] of 64.6 µM and a TGI [54] greater than 100 µM. It also gave a GI50 [55] of 24.8 µM, a TGI [55] of 65 µM and a GI50 [56] of 3.09 µM. The TGI [56] was 12.3 µM, the GI50 [57] was 16.4 µM and the TGI [57] was 53.5 µM.

In the case of `Nc1c(F)cc(-c2nc3cc(F)ccc3[se]2)cc1Br`, the GI50 [1] was 0.0484 µM, the TGI [1] was 2.06 µM and the GI50 [2] was 0.306 µM. The TGI [2] was 7.79 µM, the GI50 [3] was 44.7 µM and the TGI [3] was greater than 100 µM. The GI50 [4] was greater than 54.5 µM, the TGI [4] was greater than 100 µM and the GI50 [5] was 29.4 µM. The TGI [5] was greater than 100 µM, the GI50 [6] was 0.15 µM and the TGI [6] was greater than 100 µM. For the same molecule, the GI50 [7] was 0.025 µM, the TGI [7] was 13 µM and the GI50 [8] was 10.6 µM. For the same molecule, the TGI [8] was 50.4 µM, the GI50 [9] was 16.5 µM and the TGI [9] was greater than 100 µM. The GI50 [10] was 1.06 µM, the TGI [10] was greater than 100 µM and the GI50 [11] was 0.0536 µM. For the same molecule, the TGI [11] was greater than 100 µM, the GI50 [12] was 11.4 µM and the TGI [12] was 32.4 µM. It also gave a GI50 [13] of 42.1 µM, a TGI [13] greater than 100 µM and a GI50 [14] of 0.15 µM. The TGI [14] was greater than 100 µM, the GI50 [15] was 12.7 µM and the TGI [15] was greater than 100 µM. For the same molecule, the GI50 [16] was 0.0476 µM, the TGI [16] was greater than 100 µM and the GI50 [17] was 10.6 µM. The TGI [17] was greater than 100 µM, the GI50 [18] was 5.4 µM and the TGI [18] was 36.9 µM. For the same molecule, the GI50 [19] was greater than 54.8 µM, the TGI [19] was greater than 100 µM and the GI50 [20] was 2.28 µM. The TGI [20] was 42.8 µM, the GI50 [21] was 0.0189 µM and the TGI [21] was greater than 35.2 µM. It also gave a GI50 [22] of 1.43 µM, a TGI [22] greater than 79 µM and a GI50 [23] of 0.123 µM. It also gave a TGI [23] greater than 100 µM, a GI50 [24] of 0.137 µM and a TGI [24] greater than 100 µM. It also gave a GI50 [25] of 0.0477 µM, a TGI [25] of 0.35 µM and a GI50 [26] of 0.0414 µM. The TGI [26] was 20 µM, the GI50 [27] was 0.0267 µM and the TGI [27] was greater than 100 µM. It also gave a GI50 [28] greater than 100 µM, a TGI [28] greater than 100 µM and a GI50 [29] of 0.0127 µM. For the same molecule, the TGI [29] was 27.4 µM, the GI50 [30] was 14.1 µM and the TGI [30] was greater than 100 µM. The GI50 [31] was 27.8 µM, the TGI [31] was greater than 100 µM and the GI50 [32] was 14.5 µM. The TGI [32] was greater than 100 µM, the GI50 [33] was 0.0651 µM and the GI50 [35] was 0.334 µM. It also gave a TGI [35] greater than 27.8 µM, a GI50 [58] of 2.31 µM and a TGI [58] of 39.3 µM. The GI50 [36] was 2 µM, the TGI [36] was greater than 100 µM and the GI50 [37] was 49.2 µM. For the same molecule, the TGI [37] was greater than 100 µM, the GI50 [38] was 0.104 µM and the TGI [38] was greater than 100 µM. For the same molecule, the GI50 [39] was greater than 100 µM, the TGI [39] was greater than 100 µM and the GI50 [40] was 1.83 µM. For the same molecule, the TGI [40] was greater than 100 µM, the GI50 [41] was 0.526 µM and the TGI [41] was 19.4 µM. It also gave a GI50 [42] of 0.067 µM, a TGI [42] greater than 33.5 µM and a GI50 [43] greater than 100 µM. The TGI [43] was greater than 100 µM, the TGI [44] was greater than 100 µM and the GI50 [45] was 25.3 µM. For the same molecule, the TGI [45] was greater than 100 µM, the GI50 [46] was 38.9 µM and the TGI [46] was greater than 100 µM. For the same molecule, the GI50 [47] was 3.23 µM, the TGI [47] was greater than 63 µM and the GI50 [48] was 0.0578 µM. The TGI [48] was 0.631 µM, the GI50 [49] was 14.6 µM and the TGI [49] was greater than 100 µM. The GI50 [50] was greater than 100 µM, the TGI [50] was greater than 100 µM and the GI50 [51] was 17.7 µM. For the same molecule, the TGI [51] was greater than 100 µM, the GI50 [52] was less than 0.0162 µM and the TGI [52] was greater than 100 µM. It also gave a GI50 [53] of 0.209 µM, a TGI [53] greater than 100 µM and a GI50 [54] greater than 46.5 µM. For the same molecule, the TGI [54] was greater than 100 µM, the GI50 [55] was 0.17 µM and the TGI [55] was 0.61 µM. The GI50 [56] was 12 µM, the TGI [56] was 70.5 µM and the GI50 [57] was 75 µM. For the same molecule, the TGI [57] was greater than 100 µM.

Reference: PubChem BioAssay (NCI)
